Publication PMC6478789, “A chemical toolbox for the study of bromodomains and epigenetic signaling” (Nature Communications, 2019)
Where two headings read alike, the source gives them in different places.

Experiments:
CBP/p300 [1] = target: CBP/p300; design: method as in ref 10 (suppl.); details: ref 10 (suppl.); read-out: BRET (KD (nM) column); cited from earlier work
CBP/p300 over BRD4 = details: cited from earlier work
CBP/p300 [2] = target: CBP/p300; design: method as in ref 10 (suppl.); details: ref 10 (suppl.); read-out: TR-FRET (KD (nM) column); cited from earlier work
three TNBC lines = assay: Combinatorial screen of BRD inhibitors with or without BAY-876 (confluency); assay type: cell-based, human; details: 3 μM probe + 3 μM BAY-876
Experimental: Fig. 6 BRD inhibitors leverage metabolic adaptations induced by glucose transporter I (GLUT1) inhibition in TNBC. a BRD inhibitor screening across ten TNBC cell lines. Cells were treated with indicated BRD inhibitors at 3 μM for 7 days. Confluency was measured using an IncuCyte ZOOM live cell imaging device. Data shown are mean ± s.d. of n = 4 independent cell culture grown and treated cells. A two-sided Student’s t test was used to derive the p-values. b SLC2A1 gene expression in the The Cancer Genome Atlas (TCGA) breast datasets. The cohorts were divided into TNBCs (red) and non-TNBCs (blue) according to PAM50 classification. Gene expression is reported as median-centered expression log2 values. The number of patients (n) per group is indicated. P-values were determined using a Wilcoxon's rank-sum test. c Glucose uptake in MDA-MB-436 cells in response to BAY-876 treatment relative to vehicle. MDA-MB-436 cells were treated with dimethyl sulfoxide (DMSO) or 3 µM BAY-876 for 5 days. Graph indicates mean, error bars denote s.d. from three independent assays and p-value was computed using the Benjamini-Hochberg t test; ***p < 0.001. d Effects of BAY-876 treatment on the intracellular acetyl-CoA level. Graph indicates mean, error bars denote s.d. from three independent assays and p-value was computed using the Benjamini-Hochberg t test; ***p < 0.001. e Effects of BAY-876 treatment on intracellular NAD^+/NADH level. Graph indicates the mean, error bars denote s.d. from three independent assays and p-value computed using the Benjamini-Hochberg t test; **p < 0.01. f Immunoblot analysis of H3 and H4 acetylation in MDA-MB-436 cells before and after BAY-876 treatment. P-value computed using the Benjamini-Hochberg t test; ***p < 0.001. g Cell growth effects of BAY-876 treatment on three representative cell lines. n.s. not significant. h Combinatorial screening of BRD inhibitors with or without 3 μM BAY-876 across ten TNBC cell lines. Cell confluency was obtained from the endpoint Incucyte scanning. (Left) Heatmap of the combinatorial screening results; (Right) Cell confluency after treatment with three potential BRDi candidates at 3 μM in the presence or absence of 3 μM BAY-876 in three representative cell lines. Graph indicates mean, error bars denote s.d. from three independent assays and p-values were computed using the Benjamini-Hochberg t test; **p < 0.01; ***p < 0.001. Raw data images are available in Supplementary Fig. 4
(§1) TNBC cell lines were seeded in sterile, transparent 384-well plates at 500 cells per well in 50 µl media. Chemical probes were delivered in dimethyl sulfoxide (DMSO). Cell confluency at 7 days was evaluated using an Incucyte ZOOM live cell imaging device (Essen Bioscence) and analyzed with the Incucyte ZOOM (2016A) software based on phase contrast image.

MYST1 = target: T1, MYST1 (Homo sapiens, UniProt Q9H7Z6); assay: Histone acetyltransferase (HAT) activity assay; assay type: biochemical;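 note: selectivity screen across a panel of histone acetyltransferases, with compounds tested at 1 and 10 µM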
T1 sequence (Q9H7Z6 1-458): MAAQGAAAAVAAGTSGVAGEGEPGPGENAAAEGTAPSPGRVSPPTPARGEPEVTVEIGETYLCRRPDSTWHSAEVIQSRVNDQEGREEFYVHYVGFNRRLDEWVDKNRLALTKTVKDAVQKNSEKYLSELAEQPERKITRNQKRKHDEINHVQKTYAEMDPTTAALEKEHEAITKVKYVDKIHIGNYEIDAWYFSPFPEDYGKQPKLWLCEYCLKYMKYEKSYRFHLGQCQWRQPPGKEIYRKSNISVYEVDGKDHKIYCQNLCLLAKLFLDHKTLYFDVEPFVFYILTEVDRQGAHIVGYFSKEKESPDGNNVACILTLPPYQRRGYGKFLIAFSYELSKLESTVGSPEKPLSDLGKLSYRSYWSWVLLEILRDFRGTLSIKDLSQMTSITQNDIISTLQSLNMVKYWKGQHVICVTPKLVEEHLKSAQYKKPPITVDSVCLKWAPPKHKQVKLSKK

EP300 = EP300 (Homo sapiens, UniProt Q09472); assay: Histone acetyltransferase (HAT) activity assay; assay type: biochemical;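 note: selectivity screen of bromodomain probe compounds against histone acetyltransferases, with enzyme activity given in percent for compounds tested at 1 and 10 µM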
EP300, sequence (Q09472 whole entry, species assumed): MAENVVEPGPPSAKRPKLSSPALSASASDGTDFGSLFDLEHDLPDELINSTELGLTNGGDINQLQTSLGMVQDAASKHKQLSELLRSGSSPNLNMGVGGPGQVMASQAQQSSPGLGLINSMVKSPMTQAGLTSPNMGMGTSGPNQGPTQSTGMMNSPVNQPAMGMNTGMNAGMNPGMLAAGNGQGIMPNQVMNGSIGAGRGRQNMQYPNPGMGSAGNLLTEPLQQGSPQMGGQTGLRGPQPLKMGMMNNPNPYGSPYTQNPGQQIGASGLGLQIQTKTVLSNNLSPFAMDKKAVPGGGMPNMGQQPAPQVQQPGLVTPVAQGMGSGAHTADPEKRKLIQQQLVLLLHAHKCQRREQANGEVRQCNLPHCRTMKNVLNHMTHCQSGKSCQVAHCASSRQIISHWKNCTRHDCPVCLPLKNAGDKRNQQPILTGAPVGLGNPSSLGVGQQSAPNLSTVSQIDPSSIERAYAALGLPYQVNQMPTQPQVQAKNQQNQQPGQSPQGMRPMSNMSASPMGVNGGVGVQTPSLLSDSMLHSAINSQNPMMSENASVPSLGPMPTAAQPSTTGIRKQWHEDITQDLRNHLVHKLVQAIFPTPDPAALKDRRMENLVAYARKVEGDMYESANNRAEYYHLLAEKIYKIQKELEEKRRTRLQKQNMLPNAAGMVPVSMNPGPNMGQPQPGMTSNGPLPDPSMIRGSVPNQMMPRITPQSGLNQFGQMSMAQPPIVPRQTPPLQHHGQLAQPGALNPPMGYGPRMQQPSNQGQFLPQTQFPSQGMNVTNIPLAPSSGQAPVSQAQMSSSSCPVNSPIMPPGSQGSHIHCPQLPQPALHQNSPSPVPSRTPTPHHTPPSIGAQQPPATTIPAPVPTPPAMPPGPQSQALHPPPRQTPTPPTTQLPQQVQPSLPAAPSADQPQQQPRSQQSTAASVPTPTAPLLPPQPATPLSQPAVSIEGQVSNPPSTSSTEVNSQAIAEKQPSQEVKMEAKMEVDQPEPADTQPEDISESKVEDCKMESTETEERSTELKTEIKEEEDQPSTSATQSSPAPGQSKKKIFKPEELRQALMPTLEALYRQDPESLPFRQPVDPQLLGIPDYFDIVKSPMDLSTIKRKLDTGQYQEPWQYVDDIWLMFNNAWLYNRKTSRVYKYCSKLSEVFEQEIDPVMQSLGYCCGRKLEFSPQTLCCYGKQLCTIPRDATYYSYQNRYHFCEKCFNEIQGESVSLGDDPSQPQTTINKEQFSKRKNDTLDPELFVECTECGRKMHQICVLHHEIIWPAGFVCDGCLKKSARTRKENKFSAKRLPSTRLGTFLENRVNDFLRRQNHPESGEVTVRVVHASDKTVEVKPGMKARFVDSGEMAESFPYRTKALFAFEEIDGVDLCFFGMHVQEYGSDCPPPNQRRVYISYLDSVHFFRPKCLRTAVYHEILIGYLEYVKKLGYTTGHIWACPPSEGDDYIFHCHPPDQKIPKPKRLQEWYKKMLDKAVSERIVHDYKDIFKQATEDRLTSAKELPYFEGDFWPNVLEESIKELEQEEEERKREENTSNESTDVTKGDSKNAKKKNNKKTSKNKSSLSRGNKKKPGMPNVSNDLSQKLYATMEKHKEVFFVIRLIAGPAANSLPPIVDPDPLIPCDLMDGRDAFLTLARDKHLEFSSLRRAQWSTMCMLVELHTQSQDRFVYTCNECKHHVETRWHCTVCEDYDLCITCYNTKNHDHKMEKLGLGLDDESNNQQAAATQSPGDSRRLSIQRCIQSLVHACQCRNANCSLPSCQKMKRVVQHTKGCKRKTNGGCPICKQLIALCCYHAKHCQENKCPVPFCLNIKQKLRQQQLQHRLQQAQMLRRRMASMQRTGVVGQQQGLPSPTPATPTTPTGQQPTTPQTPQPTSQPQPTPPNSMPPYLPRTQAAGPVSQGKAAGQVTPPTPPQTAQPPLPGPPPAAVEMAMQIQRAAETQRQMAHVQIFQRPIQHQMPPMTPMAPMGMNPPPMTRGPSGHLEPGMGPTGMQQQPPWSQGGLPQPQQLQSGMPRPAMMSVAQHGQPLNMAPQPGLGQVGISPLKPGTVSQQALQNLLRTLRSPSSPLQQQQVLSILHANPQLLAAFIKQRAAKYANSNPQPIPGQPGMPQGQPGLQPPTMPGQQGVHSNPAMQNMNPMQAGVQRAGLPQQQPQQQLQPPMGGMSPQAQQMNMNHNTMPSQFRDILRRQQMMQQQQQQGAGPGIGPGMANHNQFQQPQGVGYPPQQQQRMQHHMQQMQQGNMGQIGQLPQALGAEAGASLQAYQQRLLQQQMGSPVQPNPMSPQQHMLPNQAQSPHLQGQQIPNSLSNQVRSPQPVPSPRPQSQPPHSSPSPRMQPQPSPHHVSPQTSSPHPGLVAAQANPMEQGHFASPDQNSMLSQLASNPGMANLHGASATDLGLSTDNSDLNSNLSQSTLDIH

HAT1 = target: T2, HAT1 (Homo sapiens, UniProt O14929); assay: Histone acetyltransferase (HAT) activity assay; assay type: biochemical;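 note: HAT selectivity screen of BRD probe compounds, enzyme activity in % measured with compound at 1 µM and 10 µM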
T2 sequence (O14929 1-419): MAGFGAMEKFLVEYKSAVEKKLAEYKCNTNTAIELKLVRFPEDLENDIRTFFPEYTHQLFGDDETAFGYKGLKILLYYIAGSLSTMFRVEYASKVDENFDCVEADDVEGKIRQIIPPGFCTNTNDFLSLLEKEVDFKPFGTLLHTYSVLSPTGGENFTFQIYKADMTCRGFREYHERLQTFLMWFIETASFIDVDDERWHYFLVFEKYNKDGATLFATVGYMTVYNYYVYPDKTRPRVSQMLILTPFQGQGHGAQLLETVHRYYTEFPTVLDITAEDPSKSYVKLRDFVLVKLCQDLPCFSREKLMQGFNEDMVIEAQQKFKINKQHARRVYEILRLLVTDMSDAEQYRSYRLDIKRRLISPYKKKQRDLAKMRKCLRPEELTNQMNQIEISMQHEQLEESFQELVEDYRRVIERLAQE

MYST3 = MYST3 (Homo sapiens, UniProt Q92794); assay: Histone acetyltransferase (HAT) activity assay; assay type: biochemical;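 note: selectivity screen of bromodomain probe compounds across a panel of histone acetyltransferases, read out as enzyme activity in %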
GCN5L2 = GCN5L2 (Homo sapiens, UniProt Q92830); assay: Histone acetyltransferase (HAT) activity assay; assay type: biochemical;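 note: selectivity screen of BRD probe compounds across a panel of histone acetyltransferases, HAT activity in % with compound at 1 or 10 µM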
GCN5L2, sequence (Q92830 whole entry, species assumed): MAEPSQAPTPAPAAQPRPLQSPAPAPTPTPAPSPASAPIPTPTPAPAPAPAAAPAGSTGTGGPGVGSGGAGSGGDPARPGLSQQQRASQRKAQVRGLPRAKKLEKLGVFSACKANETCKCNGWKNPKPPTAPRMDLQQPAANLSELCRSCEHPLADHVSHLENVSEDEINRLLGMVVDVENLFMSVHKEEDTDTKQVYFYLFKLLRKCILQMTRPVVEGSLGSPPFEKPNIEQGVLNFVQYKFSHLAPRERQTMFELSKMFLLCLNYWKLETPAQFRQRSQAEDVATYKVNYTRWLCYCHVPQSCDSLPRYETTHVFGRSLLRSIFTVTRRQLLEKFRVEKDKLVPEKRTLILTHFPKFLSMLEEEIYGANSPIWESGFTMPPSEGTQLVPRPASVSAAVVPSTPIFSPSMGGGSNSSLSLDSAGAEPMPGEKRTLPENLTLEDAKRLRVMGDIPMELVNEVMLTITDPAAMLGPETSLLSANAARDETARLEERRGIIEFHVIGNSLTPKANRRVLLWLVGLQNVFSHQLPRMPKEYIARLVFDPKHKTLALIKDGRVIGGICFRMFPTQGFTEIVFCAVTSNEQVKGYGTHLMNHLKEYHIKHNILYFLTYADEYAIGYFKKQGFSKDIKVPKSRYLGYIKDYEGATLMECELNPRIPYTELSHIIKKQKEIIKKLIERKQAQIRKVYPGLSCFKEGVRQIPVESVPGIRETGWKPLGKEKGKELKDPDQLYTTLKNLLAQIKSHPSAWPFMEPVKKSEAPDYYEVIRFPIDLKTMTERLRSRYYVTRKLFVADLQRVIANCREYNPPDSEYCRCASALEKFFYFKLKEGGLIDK

BRDT(2) = BRDT(2) (Homo sapiens, UniProt Q58F21); design: purchased; method as in ref 7 (suppl.); details: ITC data; ref 7 (suppl.); cited from earlier work
BRD3(2) = BRD3(2) (Homo sapiens, UniProt Q15059); design: purchased; details: ITC data; ref 7 (suppl.); cited from earlier work
BRD3(2), sequence (Q15059 306-415 limits assumed): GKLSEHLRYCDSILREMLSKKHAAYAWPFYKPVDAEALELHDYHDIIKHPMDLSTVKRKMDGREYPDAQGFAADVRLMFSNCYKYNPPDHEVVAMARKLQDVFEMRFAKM

BRD2(2) = BRD2(2) (Homo sapiens, UniProt P25440); design: purchased; method as in ref 7 (suppl.); details: ITC data; ref 7 (suppl.); cited from earlier work
BRD2(2), sequence (P25440 344-453 limits assumed): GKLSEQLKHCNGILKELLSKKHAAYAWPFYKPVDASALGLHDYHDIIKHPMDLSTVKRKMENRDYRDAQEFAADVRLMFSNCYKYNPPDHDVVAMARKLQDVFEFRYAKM

BRD3(1) = BRD3(1) (Homo sapiens, UniProt Q15059); design: purchased; details: ITC data; ref 7 (suppl.); cited from earlier work
BRD3(1), sequence (Q15059 34-140 limits assumed): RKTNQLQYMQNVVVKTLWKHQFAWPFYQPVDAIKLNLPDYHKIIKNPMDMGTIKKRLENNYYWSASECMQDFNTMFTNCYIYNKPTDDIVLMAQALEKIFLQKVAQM

BRDT(1) = BRDT(1) (Homo sapiens, UniProt Q58F21); design: purchased; details: ITC data; ref 7 (suppl.); cited from earlier work
ten TNBC cell lines = assay: High-throughput screening of bromodomain inhibitors in TNBC panel (confluency); assay type: cell-based, human; details: 3 μM, 7 days
Experimental: Fig. 6 BRD inhibitors leverage metabolic adaptations induced by glucose transporter I (GLUT1) inhibition in TNBC. a BRD inhibitor screening across ten TNBC cell lines. Cells were treated with indicated BRD inhibitors at 3 μM for 7 days. Confluency was measured using an IncuCyte ZOOM live cell imaging device. Data shown are mean ± s.d. of n = 4 independent cell culture grown and treated cells. A two-sided Student’s t test was used to derive the p-values. b SLC2A1 gene expression in the The Cancer Genome Atlas (TCGA) breast datasets. The cohorts were divided into TNBCs (red) and non-TNBCs (blue) according to PAM50 classification. Gene expression is reported as median-centered expression log2 values. The number of patients (n) per group is indicated. P-values were determined using a Wilcoxon's rank-sum test. c Glucose uptake in MDA-MB-436 cells in response to BAY-876 treatment relative to vehicle. MDA-MB-436 cells were treated with dimethyl sulfoxide (DMSO) or 3 µM BAY-876 for 5 days. […]
TNBC cell lines were seeded in sterile, transparent 384-well plates at 500 cells per well in 50 µl media. […] Cell confluency at 7 days was evaluated using an Incucyte ZOOM live cell imaging device (Essen Bioscence) and analyzed with the Incucyte ZOOM (2016A) software based on phase contrast image.

BRD2(1) = BRD2(1) (Homo sapiens, UniProt P25440); design: purchased; details: ITC data; ref 7 (suppl.); cited from earlier work
BRD2(1), sequence (P25440 74-180 limits assumed): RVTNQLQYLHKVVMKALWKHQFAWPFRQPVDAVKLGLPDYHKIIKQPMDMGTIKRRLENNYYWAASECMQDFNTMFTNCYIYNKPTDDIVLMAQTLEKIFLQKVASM

MDA-MB-436 cells = assay: Confluency with BRPF inhibitors and BAY-876; assay type: cell-based, human; details: 3 μM, 7 days
Experimental: Graph indicates mean, error bars denote s.d. from eight wells (from two independent assays) and p-value was computed using the Benjamini-Hochberg t test; ***p < 0.001. d Immunoblot validation of BRPF knockdown in MDA-MB-436 cells. e Quantitative real-time PCR (RT-qPCR) validation of BRPF knockdown in MDA-MB-436 cells. […] Raw data images are available in Supplementary Fig. 4
as §1

Row | SMILES | viability in combination with BAY-876 (three TNBC lines) | HATs Activity (%) (MYST1; 1µM) | HATs Activity (%) (MYST1; 10µM) | HATs Activity (%) (EP300; 1µM) | HATs Activity (%) (EP300; 10µM) | HATs Activity (%) (HAT1; 1µM) | HATs Activity (%) (HAT1; 10µM) | HATs Activity (%) (MYST3; 1µM) | HATs Activity (%) (MYST3; 10µM) | HATs Activity (%) (GCN5L2; 1µM) | HATs Activity (%) (GCN5L2; 10µM) | also measured
1 | CNC(=O)N1CCc2c(c(N3CCCc4cc(-c5cnn(C)c5)c(C(F)F)cc43)nn2C2CCOCC2)C1 [GNE-781] |  |  |  |  |  |  |  |  |  |  |  | Kd (CBP/p300 [1]): 6.2 nM; selectivity over BRD4 for CBP/p300 (CBP/p300 over BRD4): 650 fold; Kd (CBP/p300 [2]): 0.94 nM
2 | CCn1cc(-c2cccc(C(F)(F)F)c2)c2sc(C(=N)NC3CCS(=O)(=O)CC3)cc2c1=O [I-BRD9] | significant decrease in viability | 104 | 104 | 96 | 99 | 103 | 101 | 101 | 99 | 104 | 102 | combination effect with BAY-876 across the three cell lines (three TNBC lines): efficacy in only one of the three tested TNBC lines
3 | COc1ccccc1S(=O)(=O)Nc1ccc2c(c1)CN(C)C(=O)N2 [PFI-1] | significant decrease in viability | 101 | 95 | 99 | 100 | 102 | 93 | 105 | 86 | 96 | 93 | Kd (BRDT(2)): 221 nM; Kd (BRD3(2)): 76 nM; Kd (BRD2(2)): 144 nM; Kd (BRD3(1)): 80 nM; Kd (BRDT(1)): 85 nM; anti-proliferative effect (confluency) (ten TNBC cell lines): strong anti-proliferative effects; Kd (BRD2(1)): 108 nM
4 | COc1ccccc1C(=O)Nc1cc2c(cc1N1CCCC1)n(C)c(=O)n2C [PFI-4] |  |  |  |  |  |  |  |  |  |  |  | synergy with BAY-876 (MDA-MB-436 cells): no significant effect
